Values of other authors as cited in US20050042178A1, “Microparticles containing the CGRP-antagonist 1-[N2-[3,5-dibrom-N-[[4-(3,4-dihydro-2(1H)-oxoquinazoline-3-yl)-1-piperidinyl]carbonyl]-D-tyrosyl]-L-lysyl]-4-(4-pyridinyl)-piperazine, process for preparing and the use thereof as inhalation powder” (Boehringer Ingelheim International GmbH, priority 2003, published 2005).

Details: conventional formulations

oral bioavailability: very limited
Compound: NCCCC[C@H](NC(=O)[C@@H](Cc1cc(Br)c(O)c(Br)c1)NC(=O)N1CCC(N2Cc3ccccc3NC2=O)CC1)C(=O)N1CCN(c2ccncc2)CC1 [A, 1-[N^2-[3,5-dibromo-N-[[4-(3,4-dihydro-2(1H)-oxoquinazolin-3-yl)-1-piperidinyl]carbonyl]-D-tyrosyl]-L-lysyl]-4-(4-pyridinyl)-piperazine]
